From patent US20150218212A1, “FLUORINATED EPOXYKETONE-BASED TETRAPEPTIDE COMPOUNDS AND USES THEREOF AS PROTEASOME INHIBITORS” (FLUORINOV PHARMA INC., priority 2012, published 2015)

Columns and labels:
MM.1S tumor cells = test: Inhibition of tumor growth in myeloma MM.1S mouse xenograft model; assay type: in vivo; conditions: MM.1S xenograft mice
Method: The mice were irradiated (200 rads) using a Co60 irradiator source. After 24 hrs, each mouse was inoculated subcutaneously with 5×10^6 MM.1S tumor cells in 0.1 mL PBS for tumor development. Treatments were started when the tumor volume reached 100 mm^3. Each treatment group consisted of 10 mice. The test articles of compounds of Formula I were administrated to the tumor-bearing mice according to a specific predetermined regimen.

HOP-92 = test: NCI screening panel, HOP-92 (Non-Small Cell Lung Cancer); assay type: cell-based, human
Method: (§1) Representative compounds of Formula I were screened using the National Cancer Institute (NCI) screening panel, which consists of a panel of human tumor cell lines, representing leukemia, melanoma, and cancers of the lung, colon, ovary, breast, prostate and renal system.
(§2) After 24 h, two plates of each cell line are fixed in situ with TCA, to represent a measurement of the cell population for each cell line at the time of drug addition (Tz). Experimental drugs are solubilised in dimethyl sulfoxide at 400-fold the desired final maximum test concentration and stored frozen prior to use. At the time of drug addition, an aliquot of frozen concentrate is thawed and diluted to twice the desired final maximum test concentration with complete medium containing 50 μg/mL gentamicin. Additional four, 10-fold or ½ log serial dilutions are made to provide a total of five drug concentrations plus control. Aliquots of 100 μl of these different drug dilutions are added to the appropriate microtiter wells already containing 100 μl of medium, resulting in the required final drug concentrations.
(§3) Following drug addition, the plates are incubated for an additional 48 h at 37° C., 5% CO2, 95% air, and 100% relative humidity. For adherent cells, the assay is terminated by the addition of cold TCA (trichloroacetic acid). Cells are fixed in situ by the gentle addition of 50 μl of cold 50% (w/v) TCA (final concentration, 10% TCA) and incubated for 60 minutes at 4° C. The supernatant is discarded, and the plates are washed five times with tap water and air dried. Sulforhodamine B (SRB) solution (100 μl) at 0.4% (w/v) in 1% acetic acid is added to each well, and plates are incubated for 10 minutes at room temperature. After staining, unbound dye is removed by washing five times with 1% acetic acid and the plates are air dried. Bound stain is subsequently solubilised with 10 mM trizma base, and the absorbance is read on an automated plate reader at a wavelength of 515 nm. For suspension cells, the methodology is the same except that the assay is terminated by fixing settled cells at the bottom of the wells by gently adding 50 μl of 80% TCA (final concentration, 16% TCA). Using the seven absorbance measurements [time zero, (Tz), control growth, (C), and test growth in the presence of drug at the five concentration levels (Ti)], the percentage growth is calculated at each of the drug concentrations levels. Percentage growth inhibition is calculated as: [(Ti−Tz)/(C−Tz)]×100 for concentrations for which Ti>/=Tz and [(Ti−Tz)/Tz]×100 for concentrations for which Ti<Tz.
(§4) Three dose response parameters are calculated for each experimental agent. Growth inhibition of 50% (GI50) is calculated from [(Ti−Tz)/(C−Tz)]×100=50, which is the drug concentration resulting in a 50% reduction in the net protein increase (as measured by SRB staining) in control cells during the drug incubation. The drug concentration resulting in total growth inhibition (TGI) is calculated from Ti=Tz. The LC50 (concentration of drug resulting in a 50% reduction in the measured protein at the end of the drug treatment as compared to that at the beginning) indicating a net loss of cells following treatment is calculated from [(Ti−Tz)/Tz]×100=−50. Values are calculated for each of these three parameters if the level of activity is reached. However, if the effect is not reached or is exceeded, the value for that parameter is expressed as greater or less than the maximum or minimum concentration tested.

KM12 = test: NCI screening panel, KM12 (Colon Cancer); assay type: cell-based, human
Method: as §1, §2, §3, §4

TK-10 = test: NCI screening panel, TK-10 (Renal Cancer); assay type: cell-based, human
Method: as §1, §2, §3, §4

CCRF-CEM = test: NCI screening panel, CCRF-CEM (Leukemia); assay type: cell-based, human
Method: as §1, §2, §3, §4

SMILES | gross adverse effects including reductions in body weight or alterations in behaviour (MM.1S tumor cells; 4 mg/kg i.v, days 1, 3, 5/wk×28 days) | gross adverse effects including reductions in body weight or alterations in behaviour (MM.1S tumor cells; 8 mg/kg i.v, days 1, 2/wk×4 wks) | Log10GI50 (HOP-92) | Log10LC50 (HOP-92) | Log10TGI50 (HOP-92) | Log10GI50 (KM12) | Log10LC50 (KM12) | Log10TGI50 (KM12) | Log10GI50 (TK-10) | Log10LC50 (TK-10) | Log10TGI50 (TK-10) | Log10GI50 (CCRF-CEM) | Log10LC50 (CCRF-CEM) | Log10TGI50 (CCRF-CEM)
CC(C)C[C@H](NC(=O)[C@H](COC(F)F)NC(=O)CN1CCOCC1)C(=O)N[C@@H](COC(F)F)C(=O)N[C@@H](CC(C)C)C(=O)[C@@]1(C)CO1 [Example 1, (2S)—N-[(1S)-1-(difluoromethoxymethyl)-2-[[(1S)-3-methyl-1-[(2R)-2-methyloxirane-2-carbonyl]butyl]amino]-2-oxo-ethyl]-2-[[(2S)-3-(difluoromethoxy)-2-[(2-morpholinoacetyl)amino]propanoyl]amino]-4-methyl-pentanamide] | no gross adverse effects | no gross adverse effects | −7.74 | −6.50 | −7.30 | −7.76 | −7.10 | −7.43 | −6.53 | >−4.00 | −5.17 | – | – | –
CC(C)C[C@H](NC(=O)[C@H](COC(F)F)NC(=O)CN1CCOCC1)C(=O)N[C@@H](Cc1ccccc1)C(=O)N[C@@H](CC(C)C)C(=O)[C@@]1(C)CO1 [Example 2, (2S)-N-[(1S)-1-benzyl-2-[[(1S)-3-methyl-1-[(2R)-2-methyloxirane-2-carbonyl]butyl]-amino]-2-oxo-ethyl]-2-[[(2S)-3-(difluoromethoxy)-2-[(2-morpholinoacetyl)amino]propanoyl]amino]-4-methyl-pentanamide] | – | – | – | – | – | −7.85 | −7.01 | −7.43 | −7.47 | >−4.00 | −5.73 | – | – | –
CC(C)C[C@H](NC(=O)[C@H](COC(F)F)NC(=O)CN1CCOCC1)C(=O)N[C@@H](Cc1ccccc1)C(=O)N[C@@H](Cc1ccccc1)C(=O)[C@@]1(C)CO1 [Example 3, (2S)-N-[(1S)-1-benzyl-2-[[(1S)-1-benzyl-2-[(2R)-2-methyloxiran-2-yl]-2-oxo-ethyl]amino]-2-oxo-ethyl]-2-[[(2S)-3-(difluoromethoxy)-2-[(2-morpholinoacetyl)-amino]propanoyl]amino]-4-methyl-pentan-amide] | – | – | – | – | – | <−8.00 | −7.16 | −7.74 | −7.55 | >−4.00 | −5.91 | <−8.00 | >−4.00 | −4.88
CC(C)C[C@H](NC(=O)[C@H](COC(F)F)NC(=O)CN1CCOCC1)C(=O)N[C@@H](COC(F)F)C(=O)N[C@@H](Cc1ccccc1)C(=O)[C@@]1(C)CO1 [Example 4, (2S)-N-[(1S)-2-[[(1S)-1-benzyl-2-[(2R)-2-methyloxiran-2-yl]-2-oxo-ethyl]amino]-1-(difluoromethoxymethyl)-2-oxo-ethyl]-2-[[(2S)-3-(difluoromethoxy)-2-[(2-mor-pholinoacetyl)amino]propanoyl]amino]-4 methyl-pentanamide] | – | – | −7.59 | −6.24 | −7.15 | −7.70 | −6.44 | −7.29 | −6.57 | >−4.00 | −5.48 | <−8.00 | >−4.00 | >−4.00
CC(C)C[C@H](NC(=O)[C@H](COC(F)F)NC(=O)[C@H](COC(F)F)NC(=O)[C@H](CCc1ccccc1)NC(=O)CN1CCOCC1)C(=O)[C@@]1(C)CO1 [Example 7, (2S)-N-[(1S)-1-(difluoromethoxymethyl)-2-[[(1S)-1-(difluoromethoxymethyl)-2-[[(1S)-3-methyl-1-[(2R)-2-methyloxirane-2-carbo-nyl]butyl]amino]-2-oxo-ethyl]amino]-2-oxo-ethyl]-2-[(2-morpholinoacetyl)amino]-4-phenyl-butanamide] | – | – | −7.71 | −6.54 | −7.28 | −7.78 | −7.11 | −7.45 | −6.56 | >−4.00 | −5.24 | <−8.00 | >−4.00 | >−4.00
CC(C)C[C@H](NC(=O)[C@H](Cc1ccccc1)NC(=O)[C@H](COC(F)F)NC(=O)[C@H](COC(F)F)NC(=O)CN1CCOCC1)C(=O)[C@@]1(C)CO1 [Example 11, (2S)-2-[[(2S)-3-(difluoromethoxy)-2-[[(2S)-3-(difluoromethoxy)-2-[(2-morpholinoacetyl)-amino]propanoyl]amino]propanoyl]amino]-N-[(1S)-3-methyl-1-[(2R)-2-methyloxirane-2-carbonyl]butyl]-3-phenyl-propanamide] | – | – | −7.62 | −6.26 | −7.15 | −7.73 | −7.07 | −7.40 | −6.80 | >−4.00 | −5.30 | <−8.00 | >−4.00 | −4.57
CC(C)C[C@H](NC(=O)[C@H](COC(F)F)NC(=O)[C@H](COC(F)F)NC(=O)[C@H](COC(F)F)NC(=O)CN1CCOCC1)C(=O)[C@@]1(C)CO1 [Example 17, (2S)-3-(difluoromethoxy)-N-[(1S)-1-(difluoromethoxymethyl)-2-[[(1S)-1-(difluoro-methoxymethyl)-2-[[(1S)-3-methyl-1-[(2R)-2-methyloxirane-2-carbonyl]butyl]amino]-2-oxo-ethyl]amino]-2-oxo-ethyl]-2-[(2-mor-pholinoacetyl)amino]-propanamide] | – | – | −7.56 | −6.02 | −7.01 | −7.34 | −6.24 | −6.73 | −6.30 | >−4.00 | −4.85 | −7.39 | >−4.00 | >−4.00
